Here are results for 28 compounds from US12410160B2 (Gilead Sciences, Inc., priority 2021, dated 2025).

The target in one experiment is human KHK-C (Homo sapiens (Human), UniProt P50053). Kind of experiment: KHK Biochemical Assay (IC50), ADP-Glo, KHK-C. The settings on record: average of at least two separate assays. An outline of the steps: (§1)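 ADP-Glo luminescence measured ADP made over a 4 h room-temperature reaction of ATP plus fructose, started after 30 min compound–enzyme pre-incubation. Buffer: 50 mM Hepes pH 7.4, 140 mM KCl, 5 mM MgCl2, 0.01% Triton-X. Enzyme was His-tagged, BL21 (DE3)-expressed, Ni-NTA-purified; compounds in 1:3 DMSO dilution series.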
Chain of human KHK-C (P50053 whole entry): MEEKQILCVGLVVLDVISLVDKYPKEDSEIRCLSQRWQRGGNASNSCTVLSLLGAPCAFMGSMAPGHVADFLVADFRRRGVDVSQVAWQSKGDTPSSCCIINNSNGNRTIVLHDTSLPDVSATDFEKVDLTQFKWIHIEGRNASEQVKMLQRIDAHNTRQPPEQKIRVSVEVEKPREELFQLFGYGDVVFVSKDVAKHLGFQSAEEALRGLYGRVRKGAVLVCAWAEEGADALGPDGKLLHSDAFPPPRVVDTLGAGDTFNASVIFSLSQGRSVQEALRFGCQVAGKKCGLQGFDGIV
On the technique in general: ADP-Glo first removes unused ATP, then detects ADP through luciferase.

The target of another experiment is human KHK-A (Homo sapiens (Human), UniProt P50053). Kind of experiment: KHK Biochemical Assay (IC50), ADP-Glo, KHK-A. As to conditions: average of at least two separate assays. An outline of the steps:
as §1

Chain of human KHK-A (P50053 other isoform, or with tags, fused parts or gaps): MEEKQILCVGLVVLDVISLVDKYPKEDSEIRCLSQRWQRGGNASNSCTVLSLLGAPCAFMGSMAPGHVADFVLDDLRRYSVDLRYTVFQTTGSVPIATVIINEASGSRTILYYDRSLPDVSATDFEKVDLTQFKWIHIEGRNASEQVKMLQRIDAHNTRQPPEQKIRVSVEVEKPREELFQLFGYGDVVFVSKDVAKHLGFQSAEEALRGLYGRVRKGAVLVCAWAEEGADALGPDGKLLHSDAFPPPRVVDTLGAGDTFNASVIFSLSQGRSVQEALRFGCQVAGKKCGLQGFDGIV

Turning to `C[C@H]1[C@H](O)CN1c1nc(-c2ccc(C(F)F)c(S(C)(=N)=O)c2)c2c(n1)C(F)(F)CC2` (stereo partly drawn) [Example 721, (5-(7,7-difluoro-2-((2S,3R)-3-hydroxy-2-methylazetidin-1-yl)-6,7-dihydro-5H-cyclopenta[d]pyrimidin-4-yl)-2-(difluoromethyl)phenyl)(imino)(methyl)-λ^6-sulfanone], the IC50 worked out at 23.2 nM at human KHK-C and 28.3 nM against human KHK-A.
The corresponding values for `C[C@H]1[C@H](O)CN1c1nc(-c2ccc3c(c2)OCCC32COC(=O)N2)c2c(n1)C(F)(F)CC2` (stereo partly drawn) [Example 553, 7-(7,7-difluoro-2-((2S,3R)-3-hydroxy-2-methylazetidin-1-yl)-6,7-dihydro-5H-cyclopenta[d]pyrimidin-4-yl)spiro[chromane-4,4′-oxazolidin]-2′-one] are 1.6 nM and 15.3 nM.
`C[C@H]1CCN1c1nc2c(c(-c3cccc(CNC(=O)OC(C)(C)C)c3)n1)CCC2` [Example 328, tert-butyl N-[[3-[2-[(2S)-2-methylazetidin-1-yl]-6,7-dihydro-5H-cyclopenta[d]pyrimidin-4-yl]phenyl]methyl]carbamate]: the results for the IC50 on human KHK-C (ADP-Glo) and against human KHK-A (ADP-Glo) were 502 nM and 609 nM, respectively.
The corresponding values for `COC(=O)NC1COc2cc(-c3nc(N4C[C@@H](O)[C@@H]4C)nc4c3CCC4(F)F)cc(OC)c21` (stereo partly drawn) [Example 824, Methyl N-[6-[7,7-difluoro-2-[(2S,3R)-3-hydroxy-2-methyl-azetidin-1-yl]-5,6-dihydrocyclopenta[d]pyrimidin-4-yl]-4-methoxy-2,3-dihydrobenzofuran-3-yl]carbamate] are 8.6 nM and 91.6 nM.
Consider `C[C@H]1CCN1c1nc2c(c(-c3ccc4c(O)n[nH]c4c3)n1)CCC2` [Example 120, (S)-6-(2-(2-methylazetidin-1-yl)-6,7-dihydro-5H-cyclopenta[d]pyrimidin-4-yl)-1H-indazol-3-ol], for which the values for the half-maximal inhibitory concentration (IC50) on human KHK-C (ADP-Glo) and on human KHK-A (ADP-Glo) were 42.7 nM and 46.1 nM, respectively.
`C[C@H]1CCN1c1nc(-c2cccc(C(N)=O)c2)c2c(n1)[C@H]1CC[C@@H]2C1` [Example 62, 3-((5R,8S)-2-((S)-2-methylazetidin-1-yl)-5,6,7,8-tetrahydro-5,8-methanoquinazolin-4-yl)benzamide]: the IC50 turned out to be 2930 nM against human KHK-C (ADP-Glo) and 1920 nM against human KHK-A (ADP-Glo).
`NC1(c2ccc(-c3nc(N4CC[C@@H]4C(F)F)nc4c3CCC4(F)F)cc2)CS(=O)(=O)C1` (single isomer, unassigned) [Example 800]: the IC50 on human KHK-C (ADP-Glo) is 1.3 nM; against human KHK-A (ADP-Glo), 7.8 nM.
As for `C[C@H]1CCN1c1nc2c(c(-c3ccc4c(c3)C3(CC4)CNC(=O)C3)n1)CCC2` (stereo partly drawn) [Example 875, 6-(2-((S)-2-methylazetidin-1-yl)-6,7-dihydro-5H-cyclopenta[d]pyrimidin-4-yl)-2,3-dihydrospiro[indene-1,3′-pyrrolidin]-5′-one], the IC50 against human KHK-C (ADP-Glo) is 58 nM; against human KHK-A (ADP-Glo), 67 nM.
`NC1(c2ccc(-c3nc(N4CCC4C(F)(F)F)nc4c3CCC4(F)F)cc2)COC1` (centres unmarked) [Example 683, 3-[4-[7,7-difluoro-2-[2-(trifluoromethyl)azetidin-1-yl]-5,6-dihydrocyclopenta[d]pyrimidin-4-yl]phenyl]oxetan-3-amine]: the IC50 on human KHK-C came to 0.9 nM; at human KHK-A, 2.4 nM.
In the case of `C[C@@H]1N(c2nc(-c3ccc4c(c3)CCC43COC(=O)N3)c3c(n2)C(F)(F)CC3)C[C@@]1(C)O` (stereo partly drawn) [Example 576, 5-(7,7-difluoro-2-((2S,3R)-3-hydroxy-2,3-dimethylazetidin-1-yl)-6,7-dihydro-5H-cyclopenta[d]pyrimidin-4-yl)-2,3-dihydrospiro[indene-1,4′-oxazolidin]-2′-one], the IC50 on human KHK-C was 6.8 nM; against human KHK-A, over 100 nM.
For the compound `C[C@@H]1N(c2nc(-c3ccc4c(c3)OC[C@@H]4NS(C)(=O)=O)c3c(n2)C(F)(F)CC3)C[C@@]1(C)O` [Example 575, N—((R)-6-(7,7-difluoro-2-((2S,3R)-3-hydroxy-2,3-dimethylazetidin-1-yl)-6,7-dihydro-5H-cyclopenta[d]pyrimidin-4-yl)-2,3-dihydrobenzofuran-3-yl)methanesulfonamide], the results for the IC50 on human KHK-C and at human KHK-A were 5.9 nM and 52.4 nM, respectively.
`C[C@H]1[C@H](O)CN1c1nc2c(c(-c3cccc(C4CC4C(N)=O)c3)n1)CCC2` (stereo partly drawn) [Example 112, 2-(3-(2-((2S,3R)-3-hydroxy-2-methylazetidin-1-yl)-6,7-dihydro-5H-cyclopenta[d]pyrimidin-4-yl)phenyl)cyclopropane-1-carboxamide]: the values for the half-maximal inhibitory concentration (IC50) at human KHK-C (ADP-Glo) and on human KHK-A (ADP-Glo) were 68.8 nM and 103 nM, respectively.
The corresponding values for `CC1Cc2cc(-c3nc(N4CC[C@@H]4C)nc4c3CCC4)ccc2C1NS(C)(=O)=O` (stereo partly drawn) [Example 891, N-(2-methyl-5-(2-((S)-2-methylazetidin-1-yl)-6,7-dihydro-5H-cyclopenta[d]pyrimidin-4-yl)-2,3-dihydro-1H-inden-1-yl)methanesulfonamide] are 59.5 nM and 167 nM.
The corresponding values for `COCCS(=N)(=O)c1cc(-c2nc(N3CC[C@@H]3C)nc3c2CCC3)ccc1OC` (stereo partly drawn) [Example 869, imino(2-methoxy-5-(2-((S)-2-methylazetidin-1-yl)-6,7-dihydro-5H-cyclopenta[d]pyrimidin-4-yl)phenyl)(2-methoxyethyl)-λ^6-sulfanone] are 21.6 nM and 5.9 nM.
Consider `C[C@H]1[C@H](O)CN1c1nc(-c2ccc3c(c2)COC[C@@H]3NS(=O)(=O)C2CC2)c2c(n1)C(F)(F)CC2` [Example 579, N—((R)-7-(7,7-difluoro-2-((2S,3R)-3-hydroxy-2-methylazetidin-1-yl)-6,7-dihydro-5H-cyclopenta[d]pyrimidin-4-yl)isochroman-4-yl)cyclopropanesulfonamide], for which the half-inhibitory concentration (IC50) at human KHK-C is 2.7 nM; against human KHK-A, 25 nM.
Take `C[C@H]1[C@H](O)CN1c1nc(-c2ccc3c(c2)OC[C@@]32NC(=O)OC2(C)C)c2c(n1)C(F)(F)CC2` (single isomer, unassigned) [Example 567]: the IC50 against human KHK-C was 44.3 nM; against human KHK-A, 65 nM.
Consider `NC1(c2ccc(-c3nc(N4CC[C@H]4C(F)F)nc4c3CCC4(F)F)cc2)CS(=O)(=O)C1` (single isomer, unassigned) [Example 801], for which the results for the concentration for half-maximal inhibition (IC50) at human KHK-C (ADP-Glo) and against human KHK-A (ADP-Glo) were 52.2 nM and over 100 nM, respectively.
For `C[C@H]1CCN1c1nc2c(c(-c3ccccc3CCC(=O)O)n1)CCC2` [Example 5, (S)-3-(2-(2-(2-methylazetidin-1-yl)-6,7-dihydro-5H-cyclopenta[d]pyrimidin-4-yl)phenyl)propanoic acid] the same measures were 7900 nM and 5920 nM.
Turning to `C[C@H]1[C@H](O)CN1c1nc(-c2ccc3c(c2)OC[C@]32NC(=O)N(C)C2=O)c2c(n1)C(F)(F)CC2` (single isomer, unassigned) [Example 827], the IC50 on human KHK-C (ADP-Glo) was 11.8 nM; at human KHK-A (ADP-Glo) it was over 100 nM.
The corresponding values for `C[C@H]1CCN1c1nc2c(c(-c3ccc4[nH]cnc4c3)n1)CCC2` [Example 852, (S)-5-(2-(2-methylazetidin-1-yl)-6,7-dihydro-5H-cyclopenta[d]pyrimidin-4-yl)-1H-benzo[d]imidazole] are 18.9 nM and 21.8 nM.
The corresponding values for `C[C@H]1CCN1c1nc2c(c(-c3cccc(-c4nnn[nH]4)c3)n1)CCC2` [Example 876, (S)-4-(3-(1H-tetrazol-5-yl)phenyl)-2-(2-methylazetidin-1-yl)-6,7-dihydro-5H-cyclopenta[d]pyrimidine] are 99.4 nM and 70.4 nM.
In the case of `C[C@H]1CCN1c1nc2c(c(-c3cccc(C#N)c3)n1)CCC2` [Example 7, (S)-3-(2-(2-methylazetidin-1-yl)-6,7-dihydro-5H-cyclopenta[d]pyrimidin-4-yl)benzonitrile], the figures for the IC50 against human KHK-C (ADP-Glo) and against human KHK-A (ADP-Glo) were 373 nM and 439 nM, respectively.
Consider `C[C@H]1[C@H](O)CN1c1nc(-c2ccc3c(c2)COCC32COC(=O)N2)c2c(n1)C(F)(F)CC2` (stereo partly drawn) [Example 554, 7-(7,7-difluoro-2-((2S,3R)-3-hydroxy-2-methylazetidin-1-yl)-6,7-dihydro-5H-cyclopenta[d]pyrimidin-4-yl)spiro[isochromane-4,4′-oxazolidin]-2′-one], for which the IC50 came out at 2.8 nM against human KHK-C and 29.2 nM at human KHK-A.
Take “2-[(2S)-2-methylazetidin-1-yl]-4-(3-methylimidazol-4-yl)-6,7-dihydro-5H-cyclopenta[d]pyrimidine [Example 341]”: the results for the IC50 at human KHK-C (ADP-Glo) and against human KHK-A (ADP-Glo) were 111 nM and 133 nM, respectively.
For `C[C@@H]1CN(c2nc3c(c(-c4ccc(C(N)=O)cc4)n2)CCC3)[C@@H]1C` [Example 109, 4-(2-((2R,3R)-2,3-dimethylazetidin-1-yl)-6,7-dihydro-5H-cyclopenta[d]pyrimidin-4-yl)benzamide] the same measures were 2540 nM and 3200 nM.
With `C[C@H]1[C@H](O)CN1c1nc2c(c(-c3ccc(C4(N)CC4)cc3)n1)CCC2` [Example 301, (2S,3R)-1-(4-(4-(1-aminocyclopropyl)phenyl)-6,7-dihydro-5H-cyclopenta[d]pyrimidin-2-yl)-2-methylazetidin-3-ol], the concentration for half-maximal inhibition (IC50) against human KHK-C (ADP-Glo) was determined as 3.7 nM; on human KHK-A (ADP-Glo), 9.9 nM.
For `COc1cc(-c2nc(N3CC[C@@H]3C(F)(F)F)nc3c2CCC3(F)F)ccc1C1(N)COC1` [Example 837, (R)-3-(4-(7,7-difluoro-2-(2-(trifluoromethyl)azetidin-1-yl)-6,7-dihydro-5H-cyclopenta[d]pyrimidin-4-yl)-2-methoxyphenyl)oxetan-3-amine] the same measures were 0.7 nM and 1 nM.
For `C[C@H]1CCN1c1nc2c(c(-c3cccc(C4CC4C(=O)O)c3)n1)CCC2` (stereo partly drawn) [Example 46, 2-(3-(2-((S)-2-methylazetidin-1-yl)-6,7-dihydro-5H-cyclopenta[d]pyrimidin-4-yl)phenyl)cyclopropane-1-carboxylic acid] the same measures were 7.6 nM and 10 nM.

What is called IC50 is the point on the concentration scale where inhibition reaches its midpoint. Lower therefore signals inhibition by little substance.
